Experiment: gradient 5% acetonitrile 3 min, to 50% in 2 min, to 85% in 15 min, held 3 min, 100 µL/min
Settings: column: Zorbax Extend-C18 2.1 x 50 mm; eluents: water / acetonitrile, 0.1% formic acid
How it was run: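 Retention times of pure standards were taken from adduct peaks that were selected by computer and manually inspected. Over 3 months, mixtures of ~100 molecules were run by HPLC–quadrupole time-of-flight mass spectrometry in positive and negative ionization mode. The Zorbax Extend-C18 column (2.1 × 50 mm, 1.8 μm) ran at 100 μL/min in water and acetonitrile, each containing 0.1% formic acid, with 40 μL dead volume and 900 μL dwell volume.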

With `O=C(NCc1ccc(F)cc1)C1CCN(c2cc(N3CCCCC3)ncn2)CC1` the RP-LC retention time was 676 s.

`CC1CC(=O)Nc2cc(S(=O)(=O)N3CCN(c4ncccn4)CC3)ccc2S1` (centres undefined) showed an RP-LC retention time of 803 s.

Work on `Cc1cc(N2CCN(c3ccccn3)CC2)n2nc(C(F)(F)F)c(-c3ccc(Cl)cc3)c2n1` yielded an RP-LC retention time of 1010 s.

With `Cc1c(-c2noc(-c3ccccc3)n2)nnn1Cc1ccccc1` the RP-LC retention time was 1060 s.

Work on `Cc1nc(C)c(C(=O)N2CCCCCCNC(=O)[C@@H]3CCC[C@@H]32)s1` yielded an RP-LC retention time of 680 s.

In the case of `O=C(O)c1cccnc1N1CCCCC1`, the RP-LC retention time is reported as 575 s.

`COc1cc(NC(=O)N2CCCC(CN3CCc4ccccc4C3)C2)cc(OC)c1OC` (centres undefined) showed an RP-LC retention time of 642 s.

Work on `CCOC(=O)c1sc(NC(=O)C2CCCCN2S(C)(=O)=O)cc1C` (centres undefined) yielded an RP-LC retention time of 807 s.

In the case of `CCc1ccc(NC(=O)C2CCCN(S(=O)(=O)c3cc(-c4noc(C)n4)cs3)C2)cc1` (centres undefined), the RP-LC retention time is reported as 992 s.

In the case of `O=C(c1cncc(NS(=O)(=O)c2ccc(Cl)cc2)c1)N1CCCc2ccccc21`, the RP-LC retention time is reported as 880 s.

In the case of `Cc1ccc(C)c(NS(=O)(=O)c2cc(-c3nc(C(C)(C)C)cs3)cs2)c1`, the RP-LC retention time is reported as 1310 s.

With `COc1ccc(-c2nc(-c3cccc(-c4ccn[nH]4)c3)no2)cc1` the RP-LC retention time was 1000 s.

Molecule `O=[N+]([O-])/C=C/c1cc2ccccc2[nH]1` has an RP-LC retention time of 718 s.

In the case of `CCn1c(=O)c2ccccc2n(Cc2nc(-c3cc(OC)c(OC)c(OC)c3)no2)c1=O`, the RP-LC retention time is reported as 936 s.

`COc1ccc(NS(=O)(=O)c2ccc(-c3c(C)noc3C)cc2)cc1OC` showed an RP-LC retention time of 806 s.

Molecule `Cc1[nH]c(=O)[nH]c(=O)c1CCC(=O)N1CCC(c2nc3ccccc3o2)CC1` has an RP-LC retention time of 600 s.

`Cc1noc(CNC(=O)c2ccc(OCc3nc(-c4ccco4)cs3)cc2)n1` showed an RP-LC retention time of 758 s.

In the case of `COc1ccc(-n2ccn3cc(-c4cccs4)nc3c2=O)cc1Cl`, the RP-LC retention time is reported as 818 s.

With `O=C(Cc1cn2cc(Br)ccc2n1)N1CCSCC1` the RP-LC retention time was 570 s.

`CCCN(CC1CCOC1)C(=O)Nc1ccc(CC)cc1` (centres undefined) gave an RP-LC retention time of 811 s.

For `Cc1ccc(N(C)S(=O)(=O)c2cc3n(c2)CCCN(C(C)C)C3=O)cc1`, the RP-LC retention time was 865 s.

`Cc1nc(Cn2cccc2C(=O)Nc2ccccc2)no1` showed an RP-LC retention time of 820 s.

`COC(=O)c1ccccc1NC(=O)N1CCc2nc[nH]c2C1` gave an RP-LC retention time of 596 s.

`CC1(C(=O)NCc2ccc(F)cc2)CCCN(C(=O)Nc2ccccc2Br)C1` (centres undefined) showed an RP-LC retention time of 955 s.

`COc1ccc(C(=O)NC2CCN(c3cc(-c4ccc(Cl)cc4)[nH]n3)C2)cc1OC` (centres undefined) gave an RP-LC retention time of 738 s.

`Fc1ccc(Cn2cccc2-c2nc(-c3ccncc3)no2)cc1` gave an RP-LC retention time of 1100 s.

For `Cc1[nH]c(C(=O)N2CCCC(C(=O)NC(C)c3ccccc3)C2)c(C)c1C(=O)OC(C)C` (centres undefined), the RP-LC retention time was 896 s.

`C=CCn1c(=O)c2ccccc2n(Cc2nc(-c3ccc(F)cc3)no2)c1=O` showed an RP-LC retention time of 1050 s.

Work on `CCCCCCCCCOc1ccc2[nH]cc(CCN)c2c1` yielded an RP-LC retention time of 996 s.

With `CS(=O)(=O)N1CCC(C(=O)NCc2ccccc2)Oc2ccc(Cl)cc21` (centres undefined) the RP-LC retention time was 882 s.

Molecule `O=C(NCCn1c(-c2ccc(F)cc2)nc2cccnc21)Nc1ccc2c(c1)OCCO2` has an RP-LC retention time of 682 s.

In the case of `Cc1ccc(NC(=O)c2ccc3[nH]c4c(c3c2)CN(C(=O)C2CCC2)CC4)cc1`, the RP-LC retention time is reported as 864 s.

`CCn1cc(S(=O)(=O)NCc2ccccc2F)c2cccnc21` showed an RP-LC retention time of 799 s.

`COc1ccc2cc(OCC3(C(=O)O)CN(C(=O)c4ccc(F)cc4)C3)ccc2c1` showed an RP-LC retention time of 969 s.

For `Cc1ccc(-c2ccc(=O)n(Cc3noc(C(=O)N4CCC(C)CC4)n3)n2)cc1C`, the RP-LC retention time was 1050 s.

Work on `CN1C(=O)c2cccn2CC1CNC(=O)Nc1ccc2c(c1)OCCO2` (centres undefined) yielded an RP-LC retention time of 624 s.

Molecule `CC(NC(=O)c1ccc2c(c1)OCO2)C(=O)N1CCN(c2ccccn2)CC1` (centres undefined) has an RP-LC retention time of 580 s.

In the case of `COCCCNC(=O)C1CCN(c2nccnc2Sc2cccc(C)c2)CC1`, the RP-LC retention time is reported as 886 s.

Molecule `COc1ccc(Br)cc1C1C(C(=O)N2CCOCC2)=C(C)NC2=C1C(=O)CC(C)(C)C2` (centres undefined) has an RP-LC retention time of 683 s.

Work on `O=C(NCCCOc1cccc2cccnc12)c1ccc(F)cc1Cl` yielded an RP-LC retention time of 580 s.

For `CCn1c(=O)n(CC(=O)NCCN2CCCCC2C)c(=O)c2cnc(-c3ccc(Cl)cc3)nc21` (centres undefined), the RP-LC retention time was 751 s.

`O=C(Cn1nc(C(=O)N2CCOCC2)cc1C1CC1)NCCCN1CCCC1=O` gave an RP-LC retention time of 566 s.

With `CCc1ccc(NC(=O)Cn2c(=O)c3cc(-c4ccco4)nn3c3ncccc32)cc1` the RP-LC retention time was 882 s.

`CN1C(=O)c2cccnc2Sc2cc(NC(=O)c3cccc(F)c3)ccc21` gave an RP-LC retention time of 790 s.

In the case of `CCOc1ccc(C(C)NC(=O)c2nnc(-c3ccc(S(=O)(=O)N(C)C)cc3)o2)cc1` (centres undefined), the RP-LC retention time is reported as 923 s.

`COc1ccc(NC(=O)Cn2nc3nc(N4CCCC4)ccn3c2=O)cc1Cl` gave an RP-LC retention time of 676 s.

Work on `CCn1nccc1C(=O)N1CCCN(C2=NS(=O)(=O)C(c3ccccc3)=C2C)CC1` yielded an RP-LC retention time of 714 s.

In the case of `COc1cc(NC(=O)N(C)CCc2noc(COc3ccc(F)cc3)n2)cc(OC)c1`, the RP-LC retention time is reported as 874 s.

For `CC(=O)N1CCc2cc(C)c(S(=O)(=O)N3CCN(C)CC3)cc21`, the RP-LC retention time was 585 s.

`COc1ccccc1Oc1c(NS(=O)(=O)c2ccc(C(C)(C)C)cc2)nc(-c2ncccn2)nc1OCCO` showed an RP-LC retention time of 939 s.

Work on `CCn1ccc2cc(S(=O)(=O)N3CCC(C(=O)NC(C)Cc4ccco4)CC3)ccc21` (centres undefined) yielded an RP-LC retention time of 905 s.

Molecule `CCOc1ccc(N2CC(c3nc(-c4cccc(C)c4)no3)CC2=O)cc1` (centres undefined) has an RP-LC retention time of 1050 s.

For `Cc1ccc(CN2CCCC(c3nncn3Cc3ccccc3)C2)o1` (centres undefined), the RP-LC retention time was 745 s.

In the case of `O=S(=O)(Cc1ccccc1)N1CCCCC1c1noc(COCC2CC2)n1` (centres undefined), the RP-LC retention time is reported as 1050 s.

Work on `Cc1csc(-c2csc(S(=O)(=O)N3CCCCCC3)c2)n1` yielded an RP-LC retention time of 1090 s.

`CC1CCN(c2cc(-n3cnc(C(=O)N4CCc5ccccc5C4)c3)ncn2)CC1` showed an RP-LC retention time of 1060 s.

Work on `O=c1ccc(N2CCCN(S(=O)(=O)c3ccccc3F)CC2)nn1-c1ccccc1` yielded an RP-LC retention time of 820 s.

`Cc1ccc(Cc2noc(CN3CCCC3=O)n2)cc1` gave an RP-LC retention time of 758 s.

In the case of `COCCn1cc2c3c(cccc31)CN(C(=O)Nc1cc(Cl)ccc1C)CC2`, the RP-LC retention time is reported as 679 s.

Work on `O=C1COc2cc(S(=O)(=O)N3CCCC3C(=O)Nc3ccc4c(c3)OCCO4)c(Cl)cc2N1` (centres undefined) yielded an RP-LC retention time of 734 s.

Work on `COc1ccc2cc(C(=O)N3CCC(CC(=O)NCCc4c[nH]c5ccc(C)cc45)CC3)[nH]c2c1` yielded an RP-LC retention time of 817 s.

Work on `Cc1ccc(CNC(=O)C2(C)CCCN(C(=O)Nc3ccc(C)cc3Cl)C2)cc1` (centres undefined) yielded an RP-LC retention time of 1080 s.

`O=C(O)c1cccc(Nc2c(-c3ccc(F)cc3)nc3cnccn23)c1` showed an RP-LC retention time of 702 s.

In the case of `CC(C)N1CCn2c(nc3cc(C(=O)NC4CCCCCC4)ccc32)C1=O`, the RP-LC retention time is reported as 750 s.

With `COc1ccc(Cl)cc1NS(=O)(=O)c1cc(-c2[nH]ncc2C(=O)N(C)C)oc1C` the RP-LC retention time was 716 s.

Work on `CCOC(=O)C1C(=O)C=C(c2ccco2)CC1c1ccccc1Cl` (centres undefined) yielded an RP-LC retention time of 1090 s.

In the case of `CCNc1ncnc2sc3c(c12)CCN(C(=O)CC)C3`, the RP-LC retention time is reported as 617 s.

For `COc1ccc(NC(=O)Cn2c(C)cc(-c3nnc(C4CC4)o3)c2C)cc1Cl`, the RP-LC retention time was 856 s.

`CCN1CCN(C(=O)C2CCN(S(=O)(=O)c3cc(-c4noc(C)n4)cs3)CC2)CC1` showed an RP-LC retention time of 615 s.

`Cc1cc(C(=O)NCC2CCCO2)c2cccc(C)c2n1` (centres undefined) showed an RP-LC retention time of 616 s.

Molecule `CCc1cccc(NC(=O)Cn2nc3cc(C)nc(Nc4ccccc4C)n3c2=O)c1` has an RP-LC retention time of 711 s.

With `CCCn1ccc2sc(C)c(C(=O)NCc3ccc(F)cc3Cl)c2c1=O` the RP-LC retention time was 1000 s.

With `CCSc1nnc(NC(=O)CSc2nnnn2-c2ccccc2CC)s1` the RP-LC retention time was 887 s.

With `CCn1cnnc1CC1CCN(S(=O)(=O)Cc2ccccc2F)C1` (centres undefined) the RP-LC retention time was 658 s.

Work on `Cc1cccc(NC(=O)Cn2ccc3ccc(-c4nnc(C)o4)cc32)n1` yielded an RP-LC retention time of 700 s.

In the case of `CCn1cnc(S(=O)(=O)N2CCC(C(=O)NCc3ccc(Cl)cc3)CC2)c1`, the RP-LC retention time is reported as 729 s.

Molecule `CCOc1ccc(NC(=O)Cc2c(C)nn(-c3nc(-c4ccc(F)cc4)cs3)c2C)cc1` has an RP-LC retention time of 1200 s.

With `CC(C)c1cccc(NC(=O)Cn2nc3c(N4CCSCC4)nccn3c2=O)c1` the RP-LC retention time was 930 s.

For `CCOc1ccc(-c2nnc(SCC(=O)N3CCCC3)o2)cc1`, the RP-LC retention time was 757 s.

`CC(C)NC(=O)N1CCC(c2noc(-c3ccccn3)n2)C1` (centres undefined) gave an RP-LC retention time of 648 s.

With `Cc1ccc(-c2cc3n(n2)CCCN(C(=O)c2ccc(C)s2)C3)cc1` the RP-LC retention time was 948 s.

In the case of `CCOc1ccc(-c2csc3c(=O)n(Cc4ccc(F)cc4)cnc23)cc1OCC`, the RP-LC retention time is reported as 1100 s.

`Cc1csc(-c2cc(S(=O)(=O)Nc3cc(F)ccc3Cl)cn2CC(=O)N2CCCC2)n1` showed an RP-LC retention time of 957 s.

Work on `COc1ccc(C(=O)Nc2nccnc2C(=O)NC2CCCCC2)cc1` yielded an RP-LC retention time of 1040 s.

In the case of `CCCC(N[C@@H](C)C(=O)N1[C@H](C(=O)O)C[C@@H]2CCCC[C@@H]21)C(=O)OCC` (some centres undefined), the RP-LC retention time is reported as 703 s.

In the case of `Cc1nc(-c2ccccc2)sc1C(=O)Nc1nc(-c2ccccc2)c(C)s1`, the RP-LC retention time is reported as 1210 s.

Molecule `Cc1cc(C)cc(NS(=O)(=O)c2ccc(-c3nnc(C4CCC4)o3)o2)c1` has an RP-LC retention time of 996 s.

`Cc1ccc(NC(=O)N2CCN(c3cc(C)nc(N4CCOCC4)n3)CC2)c(C)c1` gave an RP-LC retention time of 666 s.

`CC(=O)Nc1nsc(N2CCC(C(=O)NCc3cc(F)cc(F)c3)CC2)n1` showed an RP-LC retention time of 661 s.
